From patent publication US20220168389A1, “METHODS OF MAKING CHIMERIC ANTIGEN RECEPTOR-EXPRESSING CELLS” (priority 2019, published 2022)

System: freshly isolated, quiescent human T cells
Test: Lentiviral transduction of freshly isolated quiescent (non-activated) T cells, flow cytometry
Assay type: cell-based
Description: Peripheral blood leukocytes from healthy donors were obtained from the Human Immunology Core. Informed consent was obtained from all participants prior to collection. All methods and experimental procedures were approved by the University of Pennsylvania Institutional Review Board. T cells were purified at the University's Human Immunology Core by negative selection using the RosetteSep T cell enrichment Cocktail. T cells were serum starved in RPMI media containing 10 mM HEPES, 2 mM L-glutamine 100 U/mL penicillin G and 100 μg/mL streptomycin for 2-6 hours and then resuspended at a concentration of 10^7 T cells/mL in X-VIVO 15 (Cambrex, Walkersville, Md.) supplemented with 5% normal human AB serum (Valley Biomedical, Winchester, Va.), 2 mM L-glutamine (Cambrex), 20 mM HEPES (Cambrex), IL7 and IL15 (10 ng/mL, Miltenyi Biotec), and deoxynucleosides (50 μM, Sigma). As the medium was switched to X-VIVO 15, T cells were simultaneously transduced with CD19-BBζ CAR or iRFP lentiviral supernatants for 24 hours.
1×10^6 cells were stained for cell surface markers to analyze T-cell differentiation status. […] Cells were washed with phosphate-buffered saline (PBS) and stained for viability using LIVE/DEAD Fixable Violet (Molecular Probes) for 15 minutes, washed once, and resuspended in fluorescence activated cell sorting (FACS) buffer containing PBS, 1% BSA, and 5 mM EDTA. […] Positively stained cells were differentiated from background using fluorescence-minus-one (FMO) controls. […]
For activated T cells, cells were resuspended at 10^6 T cells/mL in X-VIVO 15 (Cambrex, Walkersville, Md.) supplemented with 5% human AB serum (Valley Biomedical, Winchester, Va.), 2 mM L-glutamine (Cambrex), 20 mM HEPES (Cambrex), IL-7 and IL-15 (10 ng/mL, Miltenyi Biotec). […] Cell volume was also measured with a Multisizer III particle counter (Beckman-Coulter) every other day. […]
T cell differentiation was assessed using the following antibodies: anti-CCR7-FITC (BD Pharmingen); anti-CD45RO-PE, anti-CD8-H7APC (BD Biosciences); anti-CD4-BV510, anti-CD3-BV605, anti-CD14-Pacific Blue (PB), anti-CD19-PB (BioLegend). […]

deoxynucleosides [dNs] was tested, and the “increase in transduction efficiency of quiescent T cells” value (50 μM dNs vs cells in medium containing IL-7 and IL-15, iRFP vector (FIG. 2B)) was 3 fold, the “increase in lentiviral transduction of non-activated T cells” value (50 μM dNs, normalized to complete media without dNs, iRFP vector (FIG. 6B)) was about 2 fold and the “transduction efficiency in quiescent T cells” value (serum starvation combined with high concentrations of dNs (FIG. 2B)) was “exceeding 50%”.
